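Values below derive from 48-hour exposures of cells grown in 96-well plates, with endpoints linearly interpolated between the two concentrations bracketing the appropriate inhibition level. GI50: concentration for 50% inhibition of growth. Definition used: TGI = concentration required for complete inhibition of growth.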
Key:
Test in all cases: NCI anticancer screen, dose series, 48 h
786-0 renal = system: 786-0 renal
A498 renal = system: A498 renal
A549 NSCLC = system: A549 NSCLC
ACHN renal = system: ACHN renal
BT-549 breast = system: BT-549 breast
CAKI-1 renal = system: CAKI-1 renal
CCRF-CEM leukemia = system: CCRF-CEM leukemia
COLO 205 colon = system: COLO 205 colon
DU-145 prostate = system: DU-145 prostate
EKVX NSCLC = system: EKVX NSCLC
HCC-2998 colon = system: HCC-2998 colon
HCT-116 colon = system: HCT-116 colon
HCT-15 colon = system: HCT-15 colon
HL-60(TB) leukemia = system: HL-60(TB) leukemia
HOP-62 NSCLC = system: HOP-62 NSCLC
HOP-92 NSCLC = system: HOP-92 NSCLC
HS 578T breast = system: HS 578T breast
HT29 colon = system: HT29 colon
IGROV1 ovarian = system: IGROV1 ovarian
K-562 leukemia = system: K-562 leukemia
KM12 colon = system: KM12 colon
LOX IMVI melanoma = system: LOX IMVI melanoma
M14 melanoma = system: M14 melanoma
MALME-3M melanoma = system: MALME-3M melanoma
MCF7 breast = system: MCF7 breast
MDA-MB-231 breast = system: MDA-MB-231 breast
MDA-MB-435 = system: MDA-MB-435
MOLT-4 leukemia = system: MOLT-4 leukemia
NCI-H226 lung = system: NCI-H226 lung
NCI-H23 lung = system: NCI-H23 lung
NCI-H460 lung = system: NCI-H460 lung
NCI-H522 lung = system: NCI-H522 lung
NCI/ADR-RES ovarian = system: NCI/ADR-RES ovarian
OVCAR-3 ovarian = system: OVCAR-3 ovarian
OVCAR-4 ovarian = system: OVCAR-4 ovarian
OVCAR-5 ovarian = system: OVCAR-5 ovarian
OVCAR-8 ovarian = system: OVCAR-8 ovarian
PC-3 prostate = system: PC-3 prostate
RPMI-8226 leukemia = system: RPMI-8226 leukemia
RXF 393 renal = system: RXF 393 renal
SF-268 CNS = system: SF-268 CNS
SF-295 CNS = system: SF-295 CNS
SF-539 CNS = system: SF-539 CNS
SK-MEL-2 melanoma = system: SK-MEL-2 melanoma
SK-MEL-28 melanoma = system: SK-MEL-28 melanoma
SK-MEL-5 melanoma = system: SK-MEL-5 melanoma
SK-OV-3 ovarian = system: SK-OV-3 ovarian
SN12C renal = system: SN12C renal
SNB-19 CNS = system: SNB-19 CNS
SNB-75 CNS = system: SNB-75 CNS
SR leukemia = system: SR leukemia
SW-620 colon = system: SW-620 colon
T-47D breast = system: T-47D breast
TK-10 renal = system: TK-10 renal
U251 CNS = system: U251 CNS
UACC-257 melanoma = system: UACC-257 melanoma
UACC-62 melanoma = system: UACC-62 melanoma
UO-31 renal = system: UO-31 renal

Compound CC(=O)ON=C1C=CC(=C(C#N)c2ccccc2)C=C1 has a GI50 (786-0 renal) of 1.19 µM, a TGI (786-0 renal) of 14.1 µM and a GI50 (A498 renal) of 12.6 µM. For the same compound, the TGI (A498 renal) was 47 µM, the GI50 (A549 NSCLC) was 3.09 µM and the TGI (A549 NSCLC) was greater than 36 µM. For the same compound, the GI50 (ACHN renal) was 0.772 µM, the TGI (ACHN renal) was 14.2 µM and the GI50 (BT-549 breast) was 3.9 µM. For the same compound, the TGI (BT-549 breast) was 12.5 µM, the GI50 (CAKI-1 renal) was 0.396 µM and the TGI (CAKI-1 renal) was 2.71 µM. The GI50 (CCRF-CEM leukemia) was 0.387 µM, the TGI (CCRF-CEM leukemia) was greater than 100 µM and the GI50 (COLO 205 colon) was 6.02 µM. For the same compound, the TGI (COLO 205 colon) was 19.3 µM, the GI50 (DU-145 prostate) was 0.704 µM and the TGI (DU-145 prostate) was 2.86 µM. It also gave a GI50 (EKVX NSCLC) of 6.96 µM, a TGI (EKVX NSCLC) of 42.4 µM and a GI50 (HCC-2998 colon) of 11.7 µM. The TGI (HCC-2998 colon) was 32.2 µM, the GI50 (HCT-116 colon) was 0.283 µM and the TGI (HCT-116 colon) was 11.5 µM. It also gave a GI50 (HCT-15 colon) of 0.97 µM, a TGI (HCT-15 colon) of 14.2 µM and a GI50 (HL-60(TB) leukemia) of 1.11 µM. The TGI (HL-60(TB) leukemia) was 4.87 µM, the GI50 (HOP-62 NSCLC) was 1.63 µM and the TGI (HOP-62 NSCLC) was 9.16 µM. For the same compound, the GI50 (HOP-92 NSCLC) was 1.67 µM, the TGI (HOP-92 NSCLC) was 6.99 µM and the GI50 (HS 578T breast) was 3.51 µM. The TGI (HS 578T breast) was greater than 31.3 µM, the GI50 (HT29 colon) was 3.03 µM and the TGI (HT29 colon) was 12.9 µM. For the same compound, the GI50 (IGROV1 ovarian) was 1 µM, the TGI (IGROV1 ovarian) was 6.9 µM and the GI50 (K-562 leukemia) was 0.556 µM. It also gave a TGI (K-562 leukemia) greater than 45 µM, a GI50 (KM12 colon) of 0.357 µM and a TGI (KM12 colon) of 1.71 µM. The GI50 (LOX IMVI melanoma) was 0.393 µM, the TGI (LOX IMVI melanoma) was 5.58 µM and the GI50 (M14 melanoma) was 1.89 µM. For the same compound, the TGI (M14 melanoma) was 9.9 µM, the GI50 (MALME-3M melanoma) was 4.01 µM and the TGI (MALME-3M melanoma) was 20.1 µM. For the same compound, the GI50 (MCF7 breast) was 0.319 µM, the TGI (MCF7 breast) was 12.8 µM and the GI50 (MDA-MB-231 breast) was 2.63 µM. It also gave a TGI (MDA-MB-231 breast) greater than 28.5 µM, a GI50 (MDA-MB-435) of 0.283 µM and a TGI (MDA-MB-435) of 2.28 µM. It also gave a GI50 (MOLT-4 leukemia) of 2.86 µM, a TGI (MOLT-4 leukemia) greater than 100 µM and a GI50 (NCI-H226 lung) of 2.88 µM. It also gave a TGI (NCI-H226 lung) of 9.36 µM, a GI50 (NCI-H23 lung) of 4.71 µM and a TGI (NCI-H23 lung) greater than 47.4 µM. It also gave a GI50 (NCI-H460 lung) of 1.51 µM, a GI50 (NCI-H522 lung) of 0.383 µM and a TGI (NCI-H522 lung) of 2.48 µM. It also gave a GI50 (NCI/ADR-RES ovarian) of 0.768 µM, a TGI (NCI/ADR-RES ovarian) of 4.21 µM and a GI50 (OVCAR-3 ovarian) of 1.03 µM. The TGI (OVCAR-3 ovarian) was 8.41 µM, the GI50 (OVCAR-4 ovarian) was 5.51 µM and the TGI (OVCAR-4 ovarian) was 22 µM. For the same compound, the GI50 (OVCAR-5 ovarian) was 3.22 µM, the TGI (OVCAR-5 ovarian) was 9.28 µM and the GI50 (OVCAR-8 ovarian) was 2.07 µM. It also gave a TGI (OVCAR-8 ovarian) of 15 µM, a GI50 (PC-3 prostate) of 0.476 µM and a TGI (PC-3 prostate) of 12.3 µM. For the same compound, the GI50 (RPMI-8226 leukemia) was 0.428 µM, the TGI (RPMI-8226 leukemia) was 2.94 µM and the GI50 (RXF 393 renal) was 2.68 µM. It also gave a TGI (RXF 393 renal) of 11.5 µM, a GI50 (SF-268 CNS) of 1.21 µM and a TGI (SF-268 CNS) of 6.33 µM. It also gave a GI50 (SF-295 CNS) of 1.83 µM, a TGI (SF-295 CNS) of 12.7 µM and a GI50 (SF-539 CNS) of 0.671 µM. The TGI (SF-539 CNS) was 11.2 µM, the GI50 (SK-MEL-2 melanoma) was 2.19 µM and the TGI (SK-MEL-2 melanoma) was 15.6 µM. The GI50 (SK-MEL-28 melanoma) was 8.77 µM, the TGI (SK-MEL-28 melanoma) was 61.4 µM and the GI50 (SK-MEL-5 melanoma) was 2.36 µM. For the same compound, the TGI (SK-MEL-5 melanoma) was 17.7 µM, the GI50 (SK-OV-3 ovarian) was 6.41 µM and the TGI (SK-OV-3 ovarian) was greater than 100 µM. For the same compound, the GI50 (SN12C renal) was 2.49 µM, the TGI (SN12C renal) was 20.9 µM and the GI50 (SNB-19 CNS) was 11.5 µM. For the same compound, the TGI (SNB-19 CNS) was greater than 57.5 µM, the GI50 (SNB-75 CNS) was 2 µM and the TGI (SNB-75 CNS) was 13.7 µM. The GI50 (SR leukemia) was 0.619 µM, the TGI (SR leukemia) was 16.5 µM and the GI50 (SW-620 colon) was 0.452 µM. The TGI (SW-620 colon) was 7.76 µM, the GI50 (T-47D breast) was 1.05 µM and the TGI (T-47D breast) was 11.3 µM. For the same compound, the GI50 (TK-10 renal) was 2.58 µM, the TGI (TK-10 renal) was 9.9 µM and the GI50 (U251 CNS) was 0.622 µM. The TGI (U251 CNS) was 10.5 µM, the GI50 (UACC-257 melanoma) was 2.32 µM and the TGI (UACC-257 melanoma) was 18.3 µM. For the same compound, the GI50 (UACC-62 melanoma) was 3.78 µM, the TGI (UACC-62 melanoma) was 25.7 µM and the GI50 (UO-31 renal) was 0.576 µM. The TGI (UO-31 renal) was 15.6 µM.
